Experimental data published in patent US9808003B2, “Herbicidally active 2-(substituted-phenyl)-cyclopentane-1,3-dione compounds and derivatives thereof” (Syngenta Limited, priority 2013, dated 2017).

Legend:
Assay in all cases: Test 1A glasshouse assay, post-emergence herbicidal activity
Assay type in all cases: in vivo
Lolium perenne (LOLPE) = conditions: Lolium perenne, 312 h, application rate 250 g/ha, 13 days after application, visual (100%=total damage; 0%=no damage), read-out: Post-emergence Herbicidal Activity (% Phytotoxicity) LOLPE
Experimental: (§1) Seeds of a variety of test species were sown in standard soil in pots. After cultivation for one day (pre-emergence) or after 8 days cultivation (post-emergence) under controlled conditions in a glasshouse (at 24/16° C., day/night; 14 hours light; 65% humidity), the plants were sprayed with an aqueous spray solution derived from the formulation of the technical active ingredient in acetone/water (50:50) solution containing 0.5% Tween 20 (polyoxyethelyene sorbitan monolaurate, CAS RN 9005-64-5). The test plants were then grown under controlled conditions in a glasshouse (at 24/16° C., day/night; 14 hours light; 65% humidity) and watered twice daily. 13 days after application of the test herbicide, for pre- and post-emergence, the test was evaluated visually for percentage phytotoxicity to the plant (where 100%=total damage to plant; 0%=no damage to plant).
(§2) Lolium perenne (LOLPE), Alopecurus myosuroides (ALOMY), Echinochloa crus-galli (ECHCG), and Avena fatua (AVEFA); these are all grassy monocotyledonous weeds.

[1] = tested on: Echinochloa crus-galli (ECHCG); conditions: Echinochloa crus-galli, 312 h, application rate 250 g/ha, 13 days after application, visual (100%=total damage; 0%=no damage), read-out: Post-emergence Herbicidal Activity (% Phytotoxicity) ECHCG
Experimental: as §1, §2

Avena fatua (AVEFA) = conditions: Avena fatua, 312 h, application rate 250 g/ha, 13 days after application, visual (100%=total damage; 0%=no damage), read-out: Post-emergence Herbicidal Activity (% Phytotoxicity) AVEFA
Experimental: as §1, §2

[2] = tested on: Alopecurus myosuroides (ALOMY); conditions: Alopecurus myosuroides, 312 h, application rate 250 g/ha, 13 days after application, visual (100%=total damage; 0%=no damage), read-out: Post-emergence Herbicidal Activity (% Phytotoxicity) ALOMY
Experimental: as §1, §2

| Compound | pest or weed control at 250 g/ha (Lolium perenne (LOLPE)) [%] | pest or weed control at 250 g/ha [1] [%] | pest or weed control at 250 g/ha (Avena fatua (AVEFA)) [%] | pest or weed control at 250 g/ha [2] [%] |
| --- | --- | --- | --- | --- |
| CCc1cc(Br)cc(C)c1C1C(=O)CC(CCNC(=O)c2ccccn2)C1=O (stereo not shown) [Compound A83] | 100 | 100 | 100 | 100 |
| CC#Cc1cc(C)c(C2C(=O)CC(CCNC(=O)c3ccccn3)C2=O)c(CC)c1 (stereo not shown) [Compound A84, N-[2-[3-(2-ethyl-6-methyl-4-prop-1-ynyl-phenyl)-2,4-dioxo-cyclopentyl]ethyl]pyridine-2-carboxamide] | 100 | 100 | 100 | 100 |
| C#Cc1cc(C)c(C2C(=O)CC(CCNC(=O)c3ccccn3)C2=O)c(CC)c1 (stereo not shown) [Compound A85, N-[2-[3-(2-ethyl-4-ethynyl-6-methyl-phenyl)-2,4-dioxo-cyclopentyl]ethyl]pyridine-2-carboxamide] | 100 | 100 | 100 | 90 |
| CCc1cc(-c2ccc(F)cc2)cc(C)c1C1C(=O)CC(CCNC(=O)c2ccccn2)C1=O (stereo not shown) [Compound A86, N-[2-[3-[2-ethyl-4-(4-fluorophenyl)-6-methyl-phenyl]-2,4-dioxo-cyclopentyl]ethyl]pyridine-2-carboxamide] | 100 | 100 | 100 | 100 |
| CCC(CC1CC(=O)C(c2c(C)cc(C)cc2C)C1=O)NC(=O)c1ccccc1 (stereo not shown) [Compound A88] | 100 | 100 | 90 | 80 |
| Cc1cc(C)c(C2C(=O)CC(CCNC(=O)c3cccc(F)n3)C2=O)c(C)c1 (stereo not shown) [Compound A89A] | 100 | 100 | 100 | 100 |
| COc1cccc(C(=O)NCCC2CC(=O)C(c3c(C)cc(C)cc3C)C2=O)n1 (stereo not shown) [Compound A91] | 80 | 80 | 80 | 80 |
| CCOc1cccc(C(=O)NCCC2CC(=O)C(c3c(C)cc(C)cc3C)C2=O)n1 (stereo not shown) [Compound A92] | 70 | 70 | 80 | 80 |
| Cc1cc(C)c(C2C(=O)CC(CCNC(=O)c3cccc(-c4ccccc4)n3)C2=O)c(C)c1 (stereo not shown) [Compound A93] | 70 | 50 | 40 | 70 |
| Cc1cc(C)c(C2C(=O)CC(CCNC(=O)c3cccc(C(F)(F)F)n3)C2=O)c(C)c1 (stereo not shown) [Compound A94] | 80 | 90 | 100 | 90 |
| Cc1cc(C)c(C2C(=O)CC(CCNC(=O)c3ncccc3F)C2=O)c(C)c1 (stereo not shown) [Compound A96] | 100 | 100 | 100 | 100 |
| Cc1cc(C)c(C2C(=O)CC(CCNC(=O)c3ccc(F)cn3)C2=O)c(C)c1 (stereo not shown) [Compound A97] | 100 | 100 | 100 | 100 |
| Cc1cc(-c2ncc(Cl)cc2F)cc(C)c1C1C(=O)CC(CCNC(=O)c2ccccn2)C1=O (stereo not shown) [Compound A102] | 100 | 100 | 100 | 100 |
| Cc1cc(-c2ccc(Cl)cc2)cc(C)c1C1C(=O)CC(CCNC(=O)c2ccccn2)C1=O (stereo not shown) [Compound A104] | 100 | 100 | 90 | 90 |
| Cc1cc(Cl)c(C2C(=O)CC(CCNC(=O)c3ccccn3)C2=O)c(Cl)c1 (stereo not shown) [Compound A105] | 90 | 100 | 90 | 40 |
| O=C(NCCC1CC(=O)C(c2c(Cl)cc(-c3ccc(F)cc3)cc2Cl)C1=O)c1ccccn1 (stereo not shown) [Compound A106] | 100 | 100 | 100 | 90 |
